From article PMC9017309, “Triazolopyrimidines Target Aerobic Respiration in Mycobacterium tuberculosis” (Antimicrobial Agents and Chemotherapy, 2022)
In brackets after ≈: the same amount, converted by molar mass.

Experiments:
[1] = tested on: M. tuberculosis; type: cell-based, Mycobacterium tuberculosis; conditions: normalized to DMSO control
[2] = tested on: M. tuberculosis in human THP-1 macrophages; experiment: Activity against intracellular M. tuberculosis in THP-1 macrophages; type: cell-based; conditions: Mycobacterium tuberculosis, THP-1, 72 h, unit inferred, μM
[3] = tested on: M. tuberculosis H37Rv-LP (ATCC 25618); experiment: MIC in liquid medium, parental strain; type: cell-based; conditions: Mycobacterium tuberculosis, 120 h, n in brackets
[4] = in vitro; conditions: human
[5] = tested on: human HepG2 cells; conditions: read-out: IC50 HepG2, Glucose; concentration reducing cell number by 50%, 3 days exposure, glucose as carbon source; cited from earlier work
[6] = tested on: M. tuberculosis H37Rv ATCC 27294; experiment: microbe, parasite or virus in culture; type: cell-based; conditions: Mycobacterium tuberculosis, 120 h; 5 days; read-out: MIC, H37Rv ATCC 27294 Parental
[7] = tested on: M. tuberculosis H37Rv-LP (ATCC 25618); experiment: microbe, parasite or virus in culture; type: cell-based; conditions: Mycobacterium tuberculosis, 504 h, 24-well agar plates, 3 weeks, read-out: MIC on solid medium, H37Rv-LP

In the case of `CCc1nc2ccc(Cl)cn2c1C(=O)NCc1ccc(N2CCC(c3ccc(OC(F)(F)F)cc3)CC2)cc1` [Molecule Q203, Q203], the “Effect on intracellular ATP levels” value [1] is reported as “depletion of ATP levels at concentrations lower than the MIC”.

`COc1ccc(CCNc2cc(-c3ccccc3)nc3ncnn23)cc1` [TPN-0006218] gave an IC50 [2] of 0.23 ± 0.08 µM, an MIC [3] of 2.6 ± 1.3 µM (≈ 0.898 µg/mL) and an IC50 [4] of 65 µM. For the same compound, the IC50 [5] was over 100 µM.

Work on `COc1ccc(CCNc2cc(-c3ccccn3)nc3ncnn23)cc1` [TPN-0006239] yielded an MIC [6] of 9.5 ± 3.5 µM (≈ 3.29 µg/mL), an MIC [3] of 1.1 ± 0.5 µM (≈ 0.381 µg/mL) and an IC50 [4] of 73 µM. The MIC [7] was 1.6 µM (≈ 0.554 µg/mL) and the IC50 [5] was over 100 µM.

With `FC(F)(F)c1ccc(CCNc2cc(-c3ccccc3)nc3ncnn23)cc1` [TPN-0006243] the MIC [6] was 2.2 ± 0.9 µM (≈ 0.843 µg/mL), the MIC [3] was 3.7 ± 2.9 µM (≈ 1.42 µg/mL) and the IC50 [4] was over 100 µM. The IC50 [5] was over 100 µM.

In the case of `Cc1ccc(CCNc2cc(-c3ccccc3)nc3ncnn23)cc1` [TPN-0006245], the MIC [3] is listed as 2 ± 1.1 µM (≈ 0.659 µg/mL), the IC50 [4] is listed as 39 µM and the IC50 [5] is listed as 58 µM.

In the case of `FC(F)(F)c1ccc(CCNc2cc(-c3ccccn3)nc3ncnn23)cc1` [TPN-0006267], the IC50 [2] is reported as 0.21 ± 0.11 µM, the MIC [3] is reported as 1.4 ± 1.4 µM (≈ 0.538 µg/mL) and the IC50 [4] is reported as over 100 µM. For the same compound, the MIC [7] was 1.6 µM (≈ 0.615 µg/mL) and the IC50 [5] was over 100 µM.

In the case of `Clc1ccc(CCNc2cc(-c3ccccn3)nc3ncnn23)cc1` [TPN-0006273], the IC50 [2] is given as 0.19 ± 0.13 µM, the IC50 [4] is given as 76 µM and the IC50 [5] is given as 100 µM.

For `CCc1ccc(CCNc2cc(-c3ccccn3)nc3ncnn23)cc1` [TPN-0006288], the IC50 [2] is listed as 0.076 ± 0.032 µM, the IC50 [4] is listed as 23 µM and the IC50 [5] is listed as 44 µM.

For `CCc1ccc(CCNc2cc(-c3ccccc3)nc3ncnn23)cc1` [TPN-0006290], the IC50 [2] is given as 0.18 ± 0.09 µM, the IC50 [4] is given as 33 µM and the IC50 [5] is given as 49 µM.

For `NC[C@H]1O[C@H](O[C@H]2[C@H](O)[C@@H](O[C@H]3O[C@H](CO)[C@@H](O)[C@H](N)[C@H]3O)[C@H](N)C[C@@H]2N)[C@H](O)[C@@H](O)[C@@H]1O` [kanamycin], the “Effect on intracellular ATP levels” value [1] was “Depletion of ATP was not seen”.
